Experimental data from paper PMC12951562, “SH2scan: Mapping SH2 Domain-Ligand Binding Selectivity for Inhibitors and Degraders” (Journal of Medicinal Chemistry, 2026).
Non-standard residues stand in square brackets, D forms with d. Residues, ends and D or L forms follow the SMILES beside them. pY = N[C@@H](Cc1ccc(OP(=O)(O)O)cc1)C(=O)O

How the values were obtained:
Assay in all cases: biochemical
Assay type in all cases: binding
[1] = target: T1, SOCS1 (Homo sapiens, UniProt O15524)
T1 construct: made in house; host or cells: HEK293 (transient transfection), unpurified extract
T1 sequence (O15524 1-211): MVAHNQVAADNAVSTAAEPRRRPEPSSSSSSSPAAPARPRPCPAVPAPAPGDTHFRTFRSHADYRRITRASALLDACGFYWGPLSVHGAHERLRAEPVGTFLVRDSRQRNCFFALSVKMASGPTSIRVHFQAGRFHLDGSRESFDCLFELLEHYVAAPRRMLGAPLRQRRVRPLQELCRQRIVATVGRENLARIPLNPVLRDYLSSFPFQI

[2] = target: T2, PLCG2(SH2dom.C-term.) (Homo sapiens, UniProt P16885)
T2 construct: SH2dom.C-term. denotes SH2 domain closest to C-terminus of protein; made in house; host or cells: HEK293 (transient transfection, unpurified extract)
T2 sequence (P16885 646-735 limits assumed): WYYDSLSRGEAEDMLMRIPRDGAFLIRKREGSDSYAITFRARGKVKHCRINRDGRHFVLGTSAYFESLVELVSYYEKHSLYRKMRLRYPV

[3] = target: T3, SHF (Homo sapiens, UniProt Q7M4L6)
T3 construct: made in house; host or cells: HEK293 (transient transfection), unpurified extract
T3 sequence (Q7M4L6 1-423): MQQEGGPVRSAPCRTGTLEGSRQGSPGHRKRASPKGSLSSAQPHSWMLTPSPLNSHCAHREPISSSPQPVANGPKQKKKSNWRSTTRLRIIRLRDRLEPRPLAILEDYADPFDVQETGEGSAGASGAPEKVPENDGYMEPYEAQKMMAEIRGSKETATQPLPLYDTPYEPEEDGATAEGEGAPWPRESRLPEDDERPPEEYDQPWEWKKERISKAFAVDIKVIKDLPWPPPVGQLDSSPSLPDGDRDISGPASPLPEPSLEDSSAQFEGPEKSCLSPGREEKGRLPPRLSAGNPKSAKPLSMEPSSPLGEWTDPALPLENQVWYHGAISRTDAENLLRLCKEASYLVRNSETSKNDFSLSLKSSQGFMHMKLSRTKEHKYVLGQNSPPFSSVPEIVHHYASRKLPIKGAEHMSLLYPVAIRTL

[4] = target: T4, NCK1 (Homo sapiens, UniProt P16333)
T4 construct: the DNA-tagged SH2 domain concentrations used in this study were <0.1 nM; made in house; host or cells: HEK293 (transient transfection, unpurified extract)

[5] = target: T5, TEC (Homo sapiens, UniProt P42680)
T5 construct: made in house; host or cells: HEK293 (transient transfection), unpurified extract
T5 sequence (P42680 1-631): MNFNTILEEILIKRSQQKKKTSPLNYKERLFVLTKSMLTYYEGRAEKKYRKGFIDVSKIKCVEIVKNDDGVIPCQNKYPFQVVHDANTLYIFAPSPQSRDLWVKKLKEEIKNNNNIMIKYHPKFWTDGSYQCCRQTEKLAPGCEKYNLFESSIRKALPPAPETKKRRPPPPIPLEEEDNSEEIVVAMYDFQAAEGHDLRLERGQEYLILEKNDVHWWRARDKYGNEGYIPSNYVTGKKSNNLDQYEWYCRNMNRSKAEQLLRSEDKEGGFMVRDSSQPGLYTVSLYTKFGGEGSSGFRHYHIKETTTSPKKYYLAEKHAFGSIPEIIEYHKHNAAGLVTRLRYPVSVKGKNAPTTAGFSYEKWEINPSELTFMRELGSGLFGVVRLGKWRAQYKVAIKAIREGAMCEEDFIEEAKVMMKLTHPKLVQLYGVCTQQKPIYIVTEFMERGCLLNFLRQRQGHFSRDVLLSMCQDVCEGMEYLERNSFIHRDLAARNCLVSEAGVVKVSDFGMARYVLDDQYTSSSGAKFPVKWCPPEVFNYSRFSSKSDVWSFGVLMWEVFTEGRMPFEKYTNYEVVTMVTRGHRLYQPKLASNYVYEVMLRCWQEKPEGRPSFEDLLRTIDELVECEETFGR

[6] = target: T6, SHC1 (Homo sapiens, UniProt P29353)
T6 construct: made in house; host or cells: HEK293 (transient transfection), unpurified extract
T6 sequence (P29353 1-583): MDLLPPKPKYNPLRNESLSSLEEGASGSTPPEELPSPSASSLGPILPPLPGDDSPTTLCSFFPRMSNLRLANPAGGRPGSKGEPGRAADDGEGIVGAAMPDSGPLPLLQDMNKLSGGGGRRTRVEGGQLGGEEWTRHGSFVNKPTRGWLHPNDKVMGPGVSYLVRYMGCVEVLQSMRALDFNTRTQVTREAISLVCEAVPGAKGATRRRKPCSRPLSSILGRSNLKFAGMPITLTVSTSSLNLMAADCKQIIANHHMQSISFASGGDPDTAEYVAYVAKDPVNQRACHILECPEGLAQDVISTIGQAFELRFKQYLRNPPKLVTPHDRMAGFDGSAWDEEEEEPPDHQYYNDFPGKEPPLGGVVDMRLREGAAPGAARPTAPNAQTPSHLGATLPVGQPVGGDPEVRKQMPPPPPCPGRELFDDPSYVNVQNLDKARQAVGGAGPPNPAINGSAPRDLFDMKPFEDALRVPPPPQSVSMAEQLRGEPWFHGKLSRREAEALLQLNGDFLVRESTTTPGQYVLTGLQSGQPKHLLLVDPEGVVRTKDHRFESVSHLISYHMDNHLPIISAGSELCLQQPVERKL

[7] = target: T7, SHC3 (Homo sapiens, UniProt Q92529)
T7 construct: made in house; host or cells: HEK293 (transient transfection), unpurified extract
T7 sequence (Q92529 1-594): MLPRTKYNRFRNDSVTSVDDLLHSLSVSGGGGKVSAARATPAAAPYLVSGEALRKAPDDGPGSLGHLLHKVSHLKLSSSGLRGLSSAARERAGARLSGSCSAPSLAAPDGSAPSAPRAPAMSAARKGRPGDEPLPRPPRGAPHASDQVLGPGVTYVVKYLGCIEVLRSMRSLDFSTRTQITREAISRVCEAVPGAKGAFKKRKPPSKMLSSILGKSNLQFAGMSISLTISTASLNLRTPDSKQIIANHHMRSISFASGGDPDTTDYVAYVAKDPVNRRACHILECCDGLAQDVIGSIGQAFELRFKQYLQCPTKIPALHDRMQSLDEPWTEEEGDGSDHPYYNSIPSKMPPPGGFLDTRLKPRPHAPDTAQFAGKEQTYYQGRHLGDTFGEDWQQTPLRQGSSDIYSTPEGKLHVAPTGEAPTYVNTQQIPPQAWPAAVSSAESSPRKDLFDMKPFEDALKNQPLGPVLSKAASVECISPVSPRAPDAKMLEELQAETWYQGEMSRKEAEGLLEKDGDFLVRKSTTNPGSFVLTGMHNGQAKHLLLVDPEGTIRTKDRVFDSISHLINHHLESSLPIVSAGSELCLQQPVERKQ

[8] = target: T8, SHC2 (Homo sapiens, UniProt P98077)
T8 construct: made in house; host or cells: HEK293 (transient transfection), unpurified extract
T8 sequence (P98077 1-582): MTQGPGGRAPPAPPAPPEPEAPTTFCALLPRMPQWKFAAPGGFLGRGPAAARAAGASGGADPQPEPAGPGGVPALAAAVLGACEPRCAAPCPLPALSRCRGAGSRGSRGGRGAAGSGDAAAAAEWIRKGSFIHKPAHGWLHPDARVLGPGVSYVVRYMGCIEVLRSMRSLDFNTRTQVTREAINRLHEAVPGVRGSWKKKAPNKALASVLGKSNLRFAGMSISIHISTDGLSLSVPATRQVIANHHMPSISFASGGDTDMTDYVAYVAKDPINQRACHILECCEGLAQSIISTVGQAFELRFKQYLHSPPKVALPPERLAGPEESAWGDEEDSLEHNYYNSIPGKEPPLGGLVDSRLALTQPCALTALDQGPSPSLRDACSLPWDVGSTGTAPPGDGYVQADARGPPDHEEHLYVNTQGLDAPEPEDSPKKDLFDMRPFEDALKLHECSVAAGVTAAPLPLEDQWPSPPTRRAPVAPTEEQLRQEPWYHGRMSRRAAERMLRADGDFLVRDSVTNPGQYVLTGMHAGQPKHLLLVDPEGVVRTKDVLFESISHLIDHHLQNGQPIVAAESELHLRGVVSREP

[9] = target: T9, SHC4 (Homo sapiens, UniProt Q6S5L8)
T9 construct: made in house; host or cells: HEK293 (transient transfection), unpurified extract
T9 sequence (Q6S5L8 1-630): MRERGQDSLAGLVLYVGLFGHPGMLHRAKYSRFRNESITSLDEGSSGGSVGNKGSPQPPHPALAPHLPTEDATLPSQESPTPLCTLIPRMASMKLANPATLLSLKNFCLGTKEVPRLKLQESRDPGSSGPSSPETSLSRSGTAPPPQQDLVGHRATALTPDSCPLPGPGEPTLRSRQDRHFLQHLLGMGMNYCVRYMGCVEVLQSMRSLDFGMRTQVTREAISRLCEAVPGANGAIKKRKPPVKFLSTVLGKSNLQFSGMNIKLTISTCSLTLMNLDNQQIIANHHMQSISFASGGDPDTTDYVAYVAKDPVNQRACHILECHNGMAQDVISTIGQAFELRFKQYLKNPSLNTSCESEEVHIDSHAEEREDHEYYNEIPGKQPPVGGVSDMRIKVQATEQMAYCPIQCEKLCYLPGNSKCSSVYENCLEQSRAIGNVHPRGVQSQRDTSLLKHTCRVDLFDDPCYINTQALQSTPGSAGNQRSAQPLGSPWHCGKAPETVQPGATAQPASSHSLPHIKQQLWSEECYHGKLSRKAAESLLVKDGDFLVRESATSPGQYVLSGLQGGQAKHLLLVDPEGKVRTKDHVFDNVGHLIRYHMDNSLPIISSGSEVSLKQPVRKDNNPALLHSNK

CC(=O)N[C@@H](CS)C(=O)N[C@@H](CCC(N)=O)C(=O)N[C@H](C(=O)N[C@@H](Cc1ccc(OP(=O)(O)O)cc1)C(=O)N[C@@H](Cc1ccccc1)C(=O)N[C@H](C(=O)N[C@@H](Cc1ccc(O)cc1)C(=O)N[C@@H](CC(=O)O)C(=O)N1CCC[C@H]1C(=O)N[C@@H](Cc1ccc(O)cc1)C(=O)N[C@@H](CO)C(=O)N[C@@H](CCC(=O)O)C(N)=O)[C@@H](C)O)C(C)C (Ac-CQV[pY]FTYDPYSE-NH2)
Kd [1]: 1.43 ± 0.426 µM

CC[C@H](C)[C@H](NC(=O)[C@@H](NC(=O)[C@H](Cc1ccc(OP(=O)(O)O)cc1)NC(=O)[C@H](CO)NC(=O)[C@H](CCCNC(=N)N)NC(=O)[C@@H](NC(=O)[C@H](CO)NC(=O)[C@H](CCC(=O)O)NC(=O)[C@H](CCCCN)NC(=O)[C@H](CCCCN)NC(=O)[C@H](CCCCN)NC(=O)[C@H](CCCCN)NC(C)=O)[C@@H](C)O)C(C)C)C(=O)N[C@@H](CC(C)C)C(=O)N[C@@H](CO)C(=O)N[C@@H](Cc1ccccc1)C(=O)N[C@@H](CCC(=O)O)C(=O)N[C@@H](CC(N)=O)C(=O)N[C@@H](CC(N)=O)C(=O)NCC(N)=O (Ac-KKKKESTRS[pY]VILSFENNG-NH2)
Kd [2]: 0.0109 ± 0.00709 µM | Kd [3]: 1.47 ± 0.88 µM

CC[C@H](C)[C@H](NC(=O)[C@H](Cc1c[nH]cn1)NC(=O)[C@H](CCC(=O)O)NC(C)=O)C(=O)N[C@@H](Cc1ccc(OP(=O)(O)O)cc1)C(=O)N[C@@H](CC(=O)O)C(=O)N[C@@H](CCC(=O)O)C(=O)N[C@H](C(=O)N[C@@H](C)C(=O)N[C@@H](C)C(=O)N[C@@H](CC(=O)O)C(N)=O)C(C)C [Ac-EHIpYDEVAAD-NH2]
Kd [4]: 0.0153 ± 0.00507 µM | Kd [5]: 0.267 ± 0.0663 µM

CC(=O)N[C@@H](CCC(=O)O)C(=O)N[C@@H](CC(N)=O)C(=O)N[C@@H](C)C(=O)N[C@@H](CCC(=O)O)C(=O)N[C@@H](Cc1ccc(OP(=O)(O)O)cc1)C(=O)N[C@@H](CC(C)C)C(=O)N[C@@H](CCCNC(=N)N)C(=O)N[C@H](C(=O)N[C@@H](C)C(N)=O)C(C)C [Ac-ENAEpYLRVA-NH2] (Ac-ENAE[pY]LRVA-NH2)
Kd [6]: 11 ± 1.26 µM | Kd [7]: 3.78 ± 0.472 µM | Kd [8]: 4.39 ± 0.413 µM | Kd [9]: 6.63 ± 0.773 µM
